Assay results: publication PMC9023544, “Ketone-selenoesters as potential anticancer and multidrug resistance modulation agents in 2D and 3D ovarian and breast cancer in vitro models” (Scientific Reports, 2022)

What was measured:
[1] = tested on: MCF-7/PAX spheroids; test: Cytotoxic activity against 3D models, CellTiter-Glo 3D; format: cell-based; settings: Homo sapiens, MCF7; 72 h old spheroids, 72 h incubation, n=4
Experimental: (§1) The ability of selenoesters to affect the formation of spheroids was described in the previous section. Subsequently, we have tested the cytotoxic potential of selenoesters in preformed 72 h old spheroids. Both sensitive and resistant mature breast and ovarian cells spheroids were incubated in the presence of selenoesters in a concentration range 1.6–100 µM. […] A safe concentration of selenoesters has been established based on the results of sensitization of drug-resistant 3D models.
(§2) Human ovarian and breast cancer cells (HOC, MCF-7, parental and resistant) were seeded in ultra-low attachment 96-well plates (Sigma-Aldrich) at a cell density of 0.5 × 10^5 cells/mL. After 3 days of spheroid formation, plates were carefully washed once with PBS and fresh DMEM medium (99 µL) was added. Using a binary compound dilution, the concentration range of the K3, K4, K7 compounds was prepared in new 96-well plates (0.16–10 mM). After 1 µL compound transfer, the final concentration range of compounds was 1.6–100 µM. The required volume of DMSO (1% V/V) was added to the positive control. After 72 h of incubation, 100 µL of CellTiter-Glo 3D Re-agent (Promega) was added to each well. Spheroid plates were incubated for 25 min at room temperature. Subsequently, the luminescent signal was recorded by detector (SpectraMax i3x Multi-Mode Microplate reader with MiniMax Imaging Cytometer, Molecular Devices).

[2] = tested on: HOC/ADR spheroids; test: as above; format: cell-based; settings: Homo sapiens; 72 h old spheroids, 72 h incubation, n=4
Experimental: as §1, §2

[3] = tested on: HOC spheroids; test: as above; format: cell-based; settings: Homo sapiens; 72 h old spheroids, 72 h incubation, n=4
Experimental: as §1, §2

[4] = tested on: MCF-7 spheroids; test: as above; format: cell-based; settings: Homo sapiens, MCF7; 72 h old spheroids, 72 h incubation, n=4
Experimental: as §1, §2

[5] = tested on: HEK293 (human embryonic kidney cell line); test: Cytotoxic activity, non-cancerous cell line, resazurin, 72 h; format: cell-based; settings: for IC50: Homo sapiens, HEK293, 72 h, mean ± SEM, n=3
Experimental: The cytotoxic potential of selenoesters was tested on several cancer cell lines—HOC (human parental ovarian adenocarcinoma, HOC, A2780, Sigma-Aldrich), HOC/ADR (sub-line resistant to Adriamycin, A2780/ADR, Sigma-Aldrich), MCF-7 (human breast adenocarcinoma, ATCC®, HTB-22TM), MCF-7/PAX (resistant sub-line established by gradual adaptation of parental cells to increased concentration of paclitaxel; kindly provided by Division of Cell and Molecular Biology, Third Faculty of Medicine, Charles University, Czech Republic) and on one non-cancerous cell line—HEK293 (human embryonic kidney cell line, Leibniz Institute, DSMZ-German Collection of Microorganisms and Cell Cultures GmbH). All mentioned cell lines were authenticated using short tandem repeat (STR) profiling. Cell lines were cultivated in DMEM medium (10% FBS, 1× antibiotic antimycotic solution), except for HEK293 cell line which was cultivated without antibiotics. In case of the resistant cell lines, the medium was supplemented with a required concentration of cytostatics to maintain resistance (HOC/ADR—100 nM Adriamycin; MCF-7/PAX—300 nM paclitaxel). All cells were cultivated in a CO2 incubator (5% CO2, 37 °C, Thermo Fisher Scientific).
For the experiment, the cells at passage number 5–20 were seeded at a 1 × 10^5 cells/mL concentration into 96-well plates to 100 µL final volume. The final concentration range of the compounds was 0.63–20 µM. After an incubation of 72 h, the plates were washed 1× with PBS and resazurin solution (0.03 mg/mL in 1× PBS) was added. After 1 h of incubation, the fluorescence signal was recorded (ex./em. 560/590 nm).
The selectivity index (SI) was determined as the ratio of IC50 value for the non-cancerous cells to IC50 for the cancer cell line. For resistant cell lines, the collateral sensitivity (CS) was calculated as the ratio of IC50 value in sensitive tumour cells to IC50 in the resistant cancer cell line. In both cases, the selectivity is considered as: (1) strongly selective when SI or CS value is above 6, (2) moderately selective when SI or CS is between 3 and 6, (3) slightly selective when SI or CS is between 1 and 3 and (4) non-selective when SI or CS is less than 1[23].

[6] = tested on: HOC/ADR; test: Sensitization of MDR cell line to Adriamycin; format: cell-based, human; settings: IC50 of Adriamycin / IC50 of Adriamycin with IC10 dose of compound
Experimental: To determine the sensitization potential of compounds, HOC/ADR and MCF-7/PAX were used. Based on the cytotoxic potential of the compounds against several cancer and non-cancerous cell lines (Table 1), the concentrations of applied compounds were adjusted. IC10 values was considered as the concentrations, which should not decrease the cell viability under 90%. After the addition of compounds, Adriamycin (concentration range 0.1–20 µM) and paclitaxel (concentration range 0.1–10 µM) were added to HOC/ADR and MCF-7/PAX, respectively. The sensitization potential of the compounds was determined as the ratio of the IC50 of cytostatic agent (Adriamycin/paclitaxel) to the IC50 of cytostatic agent affected by the compound in concentration corresponding to the IC10 value. Fold change greater than 1 indicated synergic effect of cytostatic agent and the tested compound.
After that, the plates were washed 1× with PBS and fresh DMEM medium supplemented with tested compounds at final concentration corresponding their IC10 value was added, except for positive control wells. Subsequently, Adriamycin (concentration range 0.1–20 µM) or paclitaxel (concentration range 0.1–10 µM) was added to the appropriate cell line for 72 h. After incubation, the cells were washed 1× with PBS and the resazurin solution (0.03 mg/mL) was added to evaluate the cell viability as described above. IC50 values of cytostatics were calculated for both the control and compounds; a fold change was counted up. When this fold change is higher than 1 indicates a synergism between the tested cytostatic agent and the compound, while a fold change lower than 1 means an antagonism. Fold change=IC50value of cytostatic treated cells only/IC50value of cytostatic treated cells in addition of the compound

CC(=O)C[Se]C(=O)c1ccc(Br)cc1 [K3]
IC50 [1]: 4 ± 0.1 µM | IC50 [2]: 3.9 ± 0.2 µM | IC50 [3]: 1.7 ± 0.1 µM | IC50 [4]: 2.5 ± 0.2 µM | IC50 [5]: 2.4 µM | Fold change [6]: (1.4 ± 0.1)×

CC(=O)C[Se]C(=O)c1ccccc1C(F)(F)F [K4]
IC50 [1]: 4.8 ± 0.3 µM | IC50 [2]: 10.5 ± 0.5 µM | IC50 [3]: 3.1 ± 0.1 µM | IC50 [4]: 2.1 µM | IC50 [5]: 5.4 ± 0.4 µM | selectivity indexes between HEK293 and cancer cell lines ([5]; all cancer cell lines tested): highest selectivity | Fold change [6]: (1.4 ± 0.1)×

CC(=O)C[Se]C(=O)c1ccc(C(C)(C)C)cc1 [K7]
IC50 [1]: 7.5 ± 0.2 µM | IC50 [2]: 10.1 ± 0.5 µM | IC50 [3]: 2.8 ± 0.1 µM | IC50 [4]: 2.2 ± 0.3 µM | IC50 [5]: 1.5 ± 0.1 µM
